From patent publication US10125134B2 (Mirati Therapeutics, Inc., priority 2016, dated 2018)
Where two headings read alike, the source gives them in different places.

What was measured:
[1] = target: KRas G12C (Homo sapiens, UniProt P01116, C118S/C51S/C80L/G12C); test: KRas G12C Modification Assay (LCMS detection of covalent adduct); assay type: binding; conditions: normalized percent of control; tested at 5 μM concentration for 3 hours
Outline: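 Covalent modification was read by reverse-phase LC/MS of intact protein after compound exposure, each reaction stopped at its time point with 25 mM acetic acid. Unmodified-protein signal, taken as percent of total, was normalised to untreated protein and reported as POC.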

[2] = test system: NCI-H358 cells (express KRas G12C), Phospho-ERK; test: Cellular inhibition of KRas G12C: Phospho-ERK in NCI-H358 cells; assay type: cell-based; conditions: pERK(Thr202/Tyr204) normalized with GAPDH, NCI-H358 cells, 3 hours, read-out: IC50
Outline: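 IC50 derived by 4-parameter fit of GAPDH-normalized pERK(Thr202/Tyr204) signal, as percent of DMSO control. Signal came from in-cell immunodetection with infrared secondaries after 3 h compound exposure of KRas G12C NCI-H358 cells at 0.5% DMSO.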

| SMILES | POC [1] | IC50 ([2]; Homo sapiens, NCI-H358, 3 h) [nM] | IC50 [2] [nM] | IC50 ([2]; Homo sapiens) [nM] |
| --- | --- | --- | --- | --- |
| C=CC(=O)N1CCN(c2nc(N3CCCC(N(C)C)C3)nc3c2CCN(c2cccc4ccccc24)C3)C[C@@H]1CC#N (stereo partly drawn) [Example 404, 2-((2S)-1-acryloyl-4-(2-(3-(dimethylamino)piperidin-1-yl)-7-(naphthalen-1-yl)-5,6,7,8-tetrahydropyrido[3,4-d]pyrimidin-4-yl)piperazin-2-yl)acetonitrile] | C (“C”>50% POC) | 0.1 to 1000 |  |  |
| C=CC(=O)N1CCN(c2nc(OC[C@@H]3CCCN3CC)nc3c2CCN(c2cc(O)cc4ccccc24)C3)CC1 [Example 197, (S)-1-(4-(2-((1-ethylpyrrolidin-2-yl)methoxy)-7-(3-hydroxynaphthalen-1-yl)-5,6,7,8-tetrahydropyrido[3,4-d]pyrimidin-4-yl)piperazin-1-yl)prop-2-en-1-one] | C (“C”>50% POC) | 0.1 to 1000 |  |  |
| C=CC(=O)N1CCN(c2nc(OC(C)CN(C)C)nc3c2CCN(c2cccc4ccccc24)C3)CC1 (centres unmarked) [Example 24, 1-(4-(2-((1-(dimethylamino)propan-2-yl)oxy)-7-(naphthalen-1-yl)-5,6,7,8-tetrahydropyrido[3,4-d]pyrimidin-4-yl)piperazin-1-yl)prop-2-en-1-one] | A (“A”≤25% POC) | > 1000 |  |  |
| C=CC(=O)N1CCN(c2nc(OC(C)CCN3CCOCC3)nc3c2CCN(c2cc(O)cc4ccccc24)C3)CC1 (centres unmarked) [Example 93, 1-(4-(7-(3-hydroxynaphthalen-1-yl)-2-((4-morpholinobutan-2-yl)oxy)-5,6,7,8-tetrahydropyrido[3,4-d]pyrimidin-4-yl)piperazin-1-yl)prop-2-en-1-one] | C (“C”>50% POC) | > 1000 |  |  |
| C=CC(=O)N1C[C@H](C)N(c2nc(OC[C@@H]3CCCN3C)nc3c2CCN(c2cc(O)cc4ccccc24)C3)C[C@H]1C [Example 336, 1-[(2R,5S)-4-[7-(3-hydroxy-1-naphthyl)-2-[[(2S)-1-methylpyrrolidin-2-yl]methoxy]-6,8-dihydro-5H-pyrido[3,4-d]pyrimidin-4-yl]-2,5-dimethyl-piperazin-1-yl]prop-2-en-1-one] | C (“C”>50% POC) | 0.1 to 1000 |  |  |
| CC#CC(=O)N1CCN(c2nc(OC[C@@H]3CCCN3C)nc3c2CCN(c2cccc4ccccc24)C3)CC1CC#N (stereo partly drawn) [Example 376, 2-(1-(but-2-ynoyl)-4-(2-(((S)-1-methylpyrrolidin-2-yl)methoxy)-7-(naphthalen-1-yl)-5,6,7,8-tetrahydropyrido[3,4-d]pyrimidin-4-yl)piperazin-2-yl)acetonitrile 2,2,2-trifluoroacetate] | C (“C”>50% POC) | 0.1 to 1000 |  |  |
| C=CC(=O)N1CCN(c2nc(OCCCN3CCOCC3)nc3c2CCN(c2c(C)ccc4[nH]ncc24)C3)CC1 [Example 44, 1-(4-(7-(5-methyl-1H-indazol-4-yl)-2-(3-morpholinopropoxy)-5,6,7,8-tetrahydropyrido[3,4-d]pyrimidin-4-yl)piperazin-1-yl)prop-2-en-1-one] | C (“C”>50% POC) |  |  | > 1000 |
| C=CC(=O)N1CCN(c2nc(OC[C@H]3CCC(=O)N3)nc3c2CCN(c2cc(O)cc4ccccc24)C3)CC1 [Example 58, (R)-5-(((4-(4-acryloylpiperazin-1-yl)-7-(3-hydroxynaphthalen-1-yl)-5,6,7,8-tetrahydropyrido[3,4-d]pyrimidin-2-yl)oxy)methyl)pyrrolidin-2-one] | C (“C”>50% POC) | > 1000 |  |  |
| C=CC(=O)N1CCN(c2nc(OCCN3CCC(OC)C3)nc3c2CCN(c2cc(O)cc4ccccc24)C3)CC1 (centres unmarked) [Example 136, 1-[4-[7-(3-hydroxy-1-naphthyl)-2-[2-(3-methoxypyrrolidin-1-yl)ethoxy]-6,8-dihydro-5H-pyrido[3,4-d]pyrimidin-4-yl]piperazin-1-yl]prop-2-en-1-one] | C (“C”>50% POC) | > 1000 |  |  |

Now from value to molecule, other results behind:

| POC [1] | SMILES | IC50 ([2]; Homo sapiens, NCI-H358, 3 h) [nM] | IC50 [2] [nM] | IC50 ([2]; Homo sapiens) [nM] |
| --- | --- | --- | --- | --- |
| C (“C”>50% POC) | C=CC(=O)N1CCN(c2nc(OC[C@@H]3CCCN3C)nc3c2CCN(c2ccccc2C#N)C3)C[C@@H]1CC#N [Example 325, 2-[4-[(3S)-3-(cyanomethyl)-4-prop-2-enoyl-piperazin-1-yl]-2-[[(2S)-1-methylpyrrolidin-2-yl]methoxy]-6,8-dihydro-5H-pyrido[3,4-d]pyrimidin-7-yl]benzonitrile] | > 1000 |  |  |
| C (“C”>50% POC) | C=CC(=O)N1CCN(c2nc(OC[C@@H]3CC(F)(F)CN3C)nc3c2CCN(c2cccc4cccc(Cl)c24)C3)C[C@@H]1CC#N [Example 366, 2-[(2S)-4-[7-(8-chloro-1-naphthyl)-2-[[(2S)-4,4-difluoro-1-methyl-pyrrolidin-2-yl]methoxy]-6,8-dihydro-5H-pyrido[3,4-d]pyrimidin-4-yl]-1-prop-2-enoyl-piperazin-2-yl]acetonitrile] | 0.1 to 1000 |  |  |
| C (“C”>50% POC) | C=CC(=O)N1CCN(c2nc(OC[C@@H]3CCCN3C)nc3c2CCN(c2cccc4c(F)cccc24)C3)CC1CC#N (stereo partly drawn) [Example 254, 2-[4-[7-(5-fluoro-1-naphthyl)-2-[[(2S)-1-methylpyrrolidin-2-yl]methoxy]-6,8-dihydro-5H-pyrido[3,4-d]pyrimidin-4-yl]-1-prop-2-enoyl-piperazin-2-yl]acetonitrile] | 0.1 to 1000 |  |  |
| C (“C”>50% POC) | C=CC(=O)N1CCN(c2nc(OC[C@@H]3CCCN3C)nc3c2CCN(c2cnccc2C#N)C3)C[C@@H]1CC#N [Example 305, 3-(4-((S)-4-acryloyl-3-(cyanomethyl)piperazin-1-yl)-2-(((S)-1-methylpyrrolidin-2-yl)methoxy)-5,6-dihydropyrido[3,4-d]pyrimidin-7(81)-yl)isonicotinonitrile] | > 1000 |  |  |
| A (“A”≤25% POC) | C=CC(=O)N1CCN(c2nc(OC[C@@H]3CCCN3C)nc3c2CCN(c2ccccc2F)C3)CC1CC#N (stereo partly drawn) [Example 227, 2-(1-acryloyl-4-(7-(2-fluorophenyl)-2-(((S)-1-methylpyrrolidin-2-yl)methoxy)-5,6,7,8-tetrahydropyrido[3,4-d]pyrimidin-4-yl)piperazin-2-yl)acetonitrile] | 0.1 to 1000 |  |  |
| C (“C”>50% POC) | C=CC(=O)N1CCN(c2nc(OC[C@@H]3CCCN3C)nc3c2CCN(c2cccc4c(F)cccc24)C3)CC1CC#N (stereo partly drawn) [Example 287, 2-[4-[7-(5-fluoro-1-naphthyl)-2-[[(2S)-1-methylpyrrolidin-2-yl]methoxy]-6,8-dihydro-5H-pyrido[3,4-d]pyrimidin-4-yl]-1-prop-2-enoyl-piperazin-2-yl]acetonitrile] |  | 0.1 to 1000 |  |
| C (“C”>50% POC) | C=CC(=O)N1CCN(c2nc(OC[C@@H]3C[C@H](OC)CN3C)nc3c2CCN(c2cccc4ccccc24)C3)CC1CC#N (stereo partly drawn) [Example 222, 2-(1-acryloyl-4-(2-(((2S,4S)-4-methoxy-1-methylpyrrolidin-2-yl)methoxy)-7-(naphthalen-1-yl)-5,6,7,8-tetrahydropyrido[3,4-d]pyrimidin-4-yl)piperazin-2-yl)acetonitrile] | 0.1 to 1000 |  |  |
| C (“C”>50% POC) | C=CC(=O)N1CCN(c2nc(OC[C@@H]3CCCN3C)nc3c2CCN(c2cnccc2C(F)(F)F)C3)CC1CC#N (stereo partly drawn) [Example 212, 2-(1-acryloyl-4-(2-(((S)-1-methylpyrrolidin-2-yl)methoxy)-7-(4-(trifluoromethyl)pyridin-3-yl)-5,6,7,8-tetrahydropyrido[3,4-d]pyrimidin-4-yl)piperazin-2-yl)acetonitrile] | 0.1 to 1000 |  |  |
| C (“C”>50% POC) | C=CC(=O)N1CCN(c2nc(OC[C@@H]3CCCN3C)nc3c2CCN(c2cccc4cccc(CC)c24)C3)C[C@@H]1CC#N [Example 360, 2-[(2S)-4-[7-(8-ethyl-1-naphthyl)-2-[[(2S)-1-methylpyrrolidin-2-yl]methoxy]-6,8-dihydro-5H-pyrido[3,4-d]pyrimidin-4-yl]-1-prop-2-enoyl-piperazin-2-yl]acetonitrile] | 0.1 to 1000 |  |  |
| C (“C”>50% POC) | C=CC(=O)N1C[C@@H](C)N(c2nc(OC[C@@H]3CCCN3C)nc3c2CCN(c2cccc4ccccc24)C3)C[C@@H]1CC#N [Example 378, 2-((2S,5R)-1-acryloyl-5-methyl-4-(2-(((S)-1-methylpyrrolidin-2-yl)methoxy)-7-(naphthalen-1-yl)-5,6,7,8-tetrahydropyrido[3,4-d]pyrimidin-4-yl)piperazin-2-yl)acetonitrile] | 0.1 to 1000 |  |  |
| C (“C”>50% POC) | C=CC(=O)N1CCN(c2nc(OC[C@@H]3CCCN3C)nc3c2CCN(c2cccc4cccc(C)c24)C3)C[C@H]1CC#N [Example 458, 2-[(2R)-4-[7-(8-methyl-1-naphthyl)-2-[[(2S)-1-methylpyrrolidin-2-yl]methoxy]-6,8-dihydro-5H-pyrido[3,4-d]pyrimidin-4-yl]-1-prop-2-enoyl-piperazin-2-yl]acetonitrile] | 0.1 to 1000 |  |  |
| C (“C”>50% POC) | C=CC(=O)N1CCN(c2nc(OC[C@@H]3CCCN3C)nc3c2CCN(c2cccc4ncccc24)C3)CC1CC#N (stereo partly drawn) [Example 294, 2-[4-[2-[[(2S)-1-methylpyrrolidin-2-yl]methoxy]-7-(5-quinolyl)-6,8-dihydro-5H-pyrido[3,4-d]pyrimidin-4-yl]-1-prop-2-enoyl-piperazin-2-yl]acetonitrile] |  | > 1000 |  |
| B (“B”>25% POC−≤50% POC) | C=CC(=O)N1CCN(c2nc(OC[C@@H]3CCCN3C)nc3c2CCN(c2cccc4ccccc24)C3)C[C@H]1C [Example 201, 1-((R)-2-methyl-4-(2-(((S)-1-methylpyrrolidin-2-yl)methoxy)-7-(naphthalen-1-yl)-5,6,7,8-tetrahydropyrido[3,4-d]pyrimidin-4-yl)piperazin-1-yl)prop-2-en-1-one] | > 1000 |  |  |
